Source: ChEMBL document CHEMBL4118281, “Azoalkyl ether imidazo[2,1-b]benzothiazoles as potentially antimicrobial agents with novel structural skeleton” (2018)
Converted amounts (≈) assume the structure as drawn.

Assays:
Cyberlindnera jadinii = assay: Antifungal activity against Candida utilis after 24 hrs by two fold serial dilution based spectrophotometric analysis; type: functional; conditions: Williopsis jadinii
Bacillus = assay: Antibacterial activity against Bacillus proteus ATCC 13315 after 24 hrs by micro broth dilution method; type: functional; conditions: ATCC 13315, 24 h
Salmonella typhi = assay: Antibacterial activity against Bacillus typhi after 24 hrs by micro broth dilution method; type: functional, Salmonella enterica subsp. enterica serovar Typhi; conditions: Salmonella enterica
Aspergillus flavus = assay: Antifungal activity against Aspergillus flavus after 24 hrs by two fold serial dilution based spectrophotometric analysis; type: functional
Micrococcus luteus = assay: Antibacterial activity against Micrococcus luteus ATCC 4698 after 24 hrs by micro broth dilution method; type: functional; conditions: NCTC 2665, 24 h
Staphylococcus aureus [1] = assay: Antibacterial activity against methicillin-resistant Staphylococcus aureus N315 after 24 hrs by micro broth dilution method; type: functional; conditions: N315, 24 h
Escherichia coli [2] = assay: Antibacterial activity against Escherichia coli DH52 after 24 hrs by micro broth dilution method; type: functional; conditions: DH52, 24 h
Pseudomonas aeruginosa = assay: Antibacterial activity against Pseudomonas aeruginosa after 24 hrs by micro broth dilution method; type: functional
Staphylococcus aureus [3] = assay: Antibacterial activity against Staphylococcus aureus ATCC 25923 after 24 hrs by micro broth dilution method; type: functional; conditions: ATCC 25923, 24 h
Shigella dysenteriae = assay: Antibacterial activity against Shigella dysenteriae after 24 hrs by micro broth dilution method; type: functional
Bacillus subtilis = assay: Antibacterial activity against Bacillus subtilis after 24 hrs by micro broth dilution method; type: functional
Candida albicans = assay: Antifungal activity against Candida albicans after 24 hrs by two fold serial dilution based spectrophotometric analysis; type: functional
Pichia norvegensis = assay: Antifungal activity against Candida mycoderma after 24 hrs by two fold serial dilution based spectrophotometric analysis; type: functional
Saccharomyces cerevisiae = assay: Antifungal activity against Beer yeast after 24 hrs by two fold serial dilution based spectrophotometric analysis; type: functional
Escherichia coli [4] = assay: Antibacterial activity against Escherichia coli JM109 after 24 hrs by micro broth dilution method; type: functional; conditions: JM109, 24 h

SMILES	MIC (Cyberlindnera jadinii) [µg/mL]	MIC (Bacillus) [µg/mL]	MIC (Salmonella typhi) [µg/mL]	MIC (Aspergillus flavus) [µg/mL]	MIC (Micrococcus luteus) [µg/mL]	MIC (Staphylococcus aureus [1]) [µg/mL]	MIC (Escherichia coli [2]) [µg/mL]	MIC (Pseudomonas aeruginosa) [µg/mL]	MIC (Staphylococcus aureus [3]) [µg/mL]	MIC (Shigella dysenteriae) [µg/mL]	MIC (Bacillus subtilis) [µg/mL]	MIC (Candida albicans) [µg/mL]	MIC (Pichia norvegensis) [µg/mL]	MIC (Saccharomyces cerevisiae) [µg/mL]	MIC (Escherichia coli [4]) [µg/mL]
c1ccc(-c2nc3sc4ccccc4n3c2COCCCn2cncn2)cc1	64 (≈ 164 µM)	16 (≈ 41.1 µM)	32 (≈ 82.2 µM)	16 (≈ 41.1 µM)	64 (≈ 164 µM)	16 (≈ 41.1 µM)	16 (≈ 41.1 µM)	4 (≈ 10.3 µM)	4 (≈ 10.3 µM)	16 (≈ 41.1 µM)	8 (≈ 20.5 µM)	4 (≈ 10.3 µM)	32 (≈ 82.2 µM)	64 (≈ 164 µM)	16 (≈ 41.1 µM)
CCOc1ccc2c(c1)sc1nc(-c3ccccc3)c(COCCCCCBr)n12	> 512	128 (≈ 270 µM)	> 512	64 (≈ 135 µM)	> 512	> 512	128 (≈ 270 µM)	> 512	> 512	128 (≈ 270 µM)	128 (≈ 270 µM)	16 (≈ 33.8 µM)	128 (≈ 270 µM)	> 512	> 512
CCOc1ccc2c(c1)sc1nc(-c3ccccc3)c(COCCCCCCCCCCn3cncn3)n12	> 512	64 (≈ 120 µM)	128 (≈ 241 µM)	> 512	64 (≈ 120 µM)	64 (≈ 120 µM)	32 (≈ 60.2 µM)	8 (≈ 15 µM)	8 (≈ 15 µM)	64 (≈ 120 µM)	32 (≈ 60.2 µM)	> 512	> 512	128 (≈ 241 µM)	64 (≈ 120 µM)
CCOc1ccc2c(c1)sc1nc(-c3ccccc3)c(COCCCCCCCCCCBr)n12	> 512	> 512	256 (≈ 471 µM)	512 (≈ 942 µM)	> 512	> 512	> 512	16 (≈ 29.4 µM)	> 512	> 512	> 512	> 512	> 512	> 512	> 512
Cc1ncc([N+](=O)[O-])n1CCCCCCCCCCOCc1c(-c2ccccc2)nc2sc3ccccc3n12	128 (≈ 235 µM)	16 (≈ 29.3 µM)	64 (≈ 117 µM)	16 (≈ 29.3 µM)	256 (≈ 469 µM)	16 (≈ 29.3 µM)	16 (≈ 29.3 µM)	16 (≈ 29.3 µM)	16 (≈ 29.3 µM)	32 (≈ 58.6 µM)	16 (≈ 29.3 µM)	8 (≈ 14.7 µM)	64 (≈ 117 µM)	256 (≈ 469 µM)	8 (≈ 14.7 µM)
O=[N+]([O-])c1cn(CCCCCCCCCCOCc2c(-c3ccccc3)nc3sc4ccccc4n23)cn1	256 (≈ 481 µM)	32 (≈ 60.2 µM)	64 (≈ 120 µM)	128 (≈ 241 µM)	128 (≈ 241 µM)	16 (≈ 30.1 µM)	16 (≈ 30.1 µM)	64 (≈ 120 µM)	32 (≈ 60.2 µM)	16 (≈ 30.1 µM)	64 (≈ 120 µM)	64 (≈ 120 µM)	64 (≈ 120 µM)	8 (≈ 15 µM)	64 (≈ 120 µM)
CCOc1ccc2c(c1)sc1nc(-c3ccccc3)c(COCCCn3c([N+](=O)[O-])cnc3C)n12	256 (≈ 521 µM)	32 (≈ 65.1 µM)	8 (≈ 16.3 µM)	64 (≈ 130 µM)	128 (≈ 260 µM)	16 (≈ 32.5 µM)	16 (≈ 32.5 µM)	32 (≈ 65.1 µM)	32 (≈ 65.1 µM)	8 (≈ 16.3 µM)	16 (≈ 32.5 µM)	32 (≈ 65.1 µM)	64 (≈ 130 µM)	8 (≈ 16.3 µM)	32 (≈ 65.1 µM)
CCOc1ccc2c(c1)sc1nc(-c3ccccc3)c(COCCCn3cncn3)n12	64 (≈ 148 µM)	> 512	> 512	64 (≈ 148 µM)	> 512	> 512	> 512	> 512	> 512	> 512	> 512	16 (≈ 36.9 µM)	64 (≈ 148 µM)	128 (≈ 295 µM)	256 (≈ 590 µM)
CCn1cc(C(=O)O)c(=O)c2cc(F)c(N3CCNCC3)cc21 [NORFLOXACIN]		8 (≈ 25.1 µM)	4 (≈ 12.5 µM)		2 (≈ 6.26 µM)	8 (≈ 25.1 µM)	1 (≈ 3.13 µM)	16 (≈ 50.1 µM)	2 (≈ 6.26 µM)	16 (≈ 50.1 µM)	4 (≈ 12.5 µM)				1 (≈ 3.13 µM)
CCOc1ccc2c(c1)sc1nc(-c3ccccc3)c(COCCCCCn3cncn3)n12	256 (≈ 555 µM)	> 512	> 512	> 512	> 512	> 512	> 512	> 512	> 512	256 (≈ 555 µM)	> 512	> 512	256 (≈ 555 µM)	> 512	128 (≈ 277 µM)
BrCCCCCCCCCCOCc1c(-c2ccccc2)nc2sc3ccccc3n12	64 (≈ 128 µM)	16 (≈ 32 µM)	128 (≈ 256 µM)	16 (≈ 32 µM)	32 (≈ 64.1 µM)	64 (≈ 128 µM)	16 (≈ 32 µM)	16 (≈ 32 µM)	32 (≈ 64.1 µM)	64 (≈ 128 µM)	8 (≈ 16 µM)	4 (≈ 8.01 µM)	64 (≈ 128 µM)	64 (≈ 128 µM)	128 (≈ 256 µM)
